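Assay format: 96-well plates, 48-hour exposure. GI50 = concentration required for 50% inhibition of growth.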 The source made the active and inactive calls. Rule as the data show it: active = GI50 up to about 1.1 µM and inactive = higher.
What was measured:
Experiment in all cases: DTP human tumour cell line panel, 48 h
HCT-116 = system: HCT-116
K562 = system: K562
SF-295 = system: SF-295
SK-MEL-28 = system: SK-MEL-28
A498 = system: A498
M14 = system: M14
SN12C = system: SN12C
HT-29 = system: HT-29
CCRF-CEM = system: CCRF-CEM
CAKI-1 = system: CAKI-1
HCT-15 = system: HCT-15
MOLT-4 = system: MOLT-4
UACC-62 = system: UACC-62
OVCAR-8 = system: OVCAR-8
RPMI-8226 = system: RPMI-8226
RXF 393 = system: RXF 393
NCI-H522 = system: NCI-H522
KM12 = system: KM12

Structure (SMILES) | GI50 (HCT-116) | GI50 (K562) | GI50 (SF-295) | GI50 (SK-MEL-28) | GI50 (A498) | GI50 (M14) | GI50 (SN12C) | GI50 (HT-29) | GI50 (CCRF-CEM) | GI50 (CAKI-1) | GI50 (HCT-15) | GI50 (MOLT-4) | GI50 (UACC-62) | GI50 (OVCAR-8) | GI50 (RPMI-8226) | GI50 (RXF 393) | GI50 (NCI-H522) | GI50 (KM12)
COc1ccc(/C=C2\CCCCC2=O)cc1 | > 100 µM (inactive) | > 100 µM (inactive) | > 100 µM (inactive) | > 100 µM (inactive) | > 100 µM (inactive) | > 100 µM (inactive) | > 100 µM (inactive) | > 100 µM (inactive) | > 100 µM (inactive) | 92.5 µM (inactive) | > 100 µM | > 100 µM (inactive) | > 100 µM (inactive) | > 100 µM (inactive) |  |  |  | 
O=c1[nH]c2cc([N+](=O)[O-])ccc2nc1/C(=N/Nc1ccccc1)C(O)c1ccccc1Cl (stereo unspecified) | > 100 µM (inactive) | 42.5 µM (inactive) | 43.3 µM (inactive) | > 100 µM (inactive) |  | 47.3 µM (inactive) | > 100 µM (inactive) | 46 µM (inactive) | 33.5 µM (inactive) |  | 7.8 µM | > 100 µM (inactive) | 11.2 µM (inactive) | > 100 µM (inactive) | 52.4 µM (inactive) | > 100 µM (inactive) | 4.68 µM (inactive) | 27.8 µM (inactive)
COc1cccc(C2c3cc4c(cc3OC(O)(CO)C2C(=O)O)OCO4)c1.COc1cccc(C2c3cc4c(cc3OC3(O)COC(=O)C23)OCO4)c1 (stereo unspecified) | 46.1 µM (inactive) | 37.7 µM (inactive) | 39.9 µM (inactive) | 26.9 µM (inactive) | 47.4 µM (inactive) | 48.8 µM (inactive) | 55.3 µM (inactive) | 37.7 µM (inactive) | 37.6 µM (inactive) |  | 43.9 µM | 35.7 µM (inactive) | 33.5 µM (inactive) | 46 µM (inactive) | 53 µM (inactive) | 33.5 µM (inactive) |  | 35.7 µM (inactive)
C=CCn1c(=S)sc2c(C(=O)OCC)c3c(C)cc(C)cn3c2c1=O | > 100 µM (inactive) | > 100 µM (inactive) | 86.7 µM (inactive) | > 100 µM (inactive) |  | > 100 µM (inactive) | > 100 µM (inactive) | > 100 µM (inactive) | > 100 µM (inactive) | > 100 µM (inactive) | > 100 µM | > 100 µM (inactive) | > 100 µM (inactive) | > 100 µM (inactive) | > 100 µM (inactive) | > 100 µM (inactive) | 65.6 µM (inactive) | 
CC(=O)N1CCc2[nH]c3ccccc3c2CC1 | > 100 µM (inactive) | > 100 µM (inactive) | > 100 µM (inactive) | > 100 µM (inactive) | > 100 µM (inactive) | > 100 µM (inactive) |  | > 100 µM (inactive) | > 100 µM (inactive) | > 100 µM (inactive) | > 100 µM | > 100 µM (inactive) | 86.1 µM (inactive) | > 100 µM (inactive) | > 100 µM (inactive) |  |  | > 100 µM (inactive)
O=[N+]([O-])c1ccc(-c2ccc(/C=N/n3c(S)nnc3-c3ccc(Cl)cc3)o2)cc1 | 17.7 µM (inactive) | 19.2 µM (inactive) | 24.1 µM (inactive) | 16.6 µM (inactive) | > 100 µM (inactive) | 16.1 µM (inactive) | > 49.2 µM (inactive) | 22 µM (inactive) | 37.2 µM (inactive) | > 39 µM (inactive) | 22.6 µM | 15 µM (inactive) | 27.4 µM (inactive) | > 50 µM (inactive) | 16.6 µM (inactive) |  | 28.6 µM (inactive) | 22.8 µM (inactive)
Cc1cc(CC(O)c2ccc(Cl)c(Cl)c2)nc(O)n1 (stereo unspecified) | 19.6 µM (inactive) | 50.1 µM (inactive) | 30.3 µM (inactive) | > 100 µM (inactive) | 53.8 µM (inactive) | 32.8 µM (inactive) | 86.3 µM (inactive) | 46.9 µM (inactive) | 48.8 µM (inactive) | 21.7 µM (inactive) | 30.7 µM | > 10 µM (inactive) | 50.9 µM (inactive) | 46.1 µM (inactive) | 71.9 µM (inactive) |  | 20.2 µM (inactive) | 36.4 µM (inactive)
O=[N+]([O-])c1cccc(C2=NN(c3ccccc3)C3c4ccccc4OCC23)c1 (stereo unspecified) | 27.2 µM (inactive) | 75.3 µM (inactive) | > 100 µM (inactive) | > 100 µM (inactive) | > 100 µM (inactive) |  |  | > 100 µM (inactive) | 91 µM (inactive) |  |  | > 100 µM (inactive) |  | > 100 µM (inactive) | > 100 µM (inactive) | > 100 µM (inactive) | 62.1 µM (inactive) | > 100 µM (inactive)
Cc1ccc(Nc2nc(-c3ccc(-c4ccc([N+](=O)[O-])cc4)o3)cs2)cc1 | 67.1 µM (inactive) | 14.2 µM (inactive) | 33.2 µM (inactive) | 38 µM (inactive) |  | > 100 µM (inactive) | 73.6 µM (inactive) | 28.4 µM (inactive) |  | > 100 µM (inactive) | 15.7 µM | 4.54 µM (inactive) | 99.8 µM (inactive) | 40.6 µM (inactive) | 12.6 µM (inactive) |  |  | 52.8 µM (inactive)
Cc1cc(N(CCC#N)CCC#N)ccc1/C=C/C(=O)Nc1cccc(Cl)c1 | > 100 µM (inactive) | 32.3 µM (inactive) | > 100 µM (inactive) | > 100 µM (inactive) | > 100 µM (inactive) | > 100 µM (inactive) | > 100 µM (inactive) | > 100 µM (inactive) | 85.7 µM (inactive) | > 100 µM (inactive) | 38.5 µM | > 100 µM (inactive) | 46.9 µM (inactive) | > 100 µM (inactive) | > 100 µM (inactive) |  | 62.7 µM (inactive) | > 100 µM (inactive)
Cc1nc(NC(=S)NC(=O)c2ccc(Cl)c(Cl)c2)sc1C(=O)/C=C/c1ccccc1[N+](=O)[O-] | 20.7 µM (inactive) | 18.2 µM (inactive) | 24.2 µM (inactive) | 25.4 µM (inactive) |  | 23.8 µM (inactive) | 21.6 µM (inactive) | 21.3 µM (inactive) | 22.4 µM (inactive) | 21.1 µM (inactive) | 20.4 µM | 19.8 µM (inactive) | 10.9 µM (inactive) | 28.1 µM (inactive) | 24.2 µM (inactive) | 19.4 µM (inactive) | 16.9 µM (inactive) | 18.7 µM (inactive)
CCOC(=O)C(=O)Nc1c(F)cc(F)cc1Br | > 100 µM (inactive) | > 100 µM (inactive) | > 100 µM (inactive) | > 100 µM (inactive) | > 100 µM (inactive) | > 100 µM (inactive) | > 100 µM (inactive) | > 100 µM (inactive) | > 100 µM (inactive) | > 100 µM (inactive) | > 100 µM | > 100 µM (inactive) | > 100 µM (inactive) | > 100 µM (inactive) | > 100 µM (inactive) | > 100 µM (inactive) |  | > 100 µM (inactive)
CN(C)CCCN1N=Nc2cccc3cccc1c23 | 28.8 µM (inactive) | 26.7 µM (inactive) | > 90.8 µM (inactive) | > 100 µM (inactive) | 78.7 µM (inactive) | > 43.4 µM (inactive) | 63.8 µM (inactive) | 33.3 µM (inactive) | 27.9 µM (inactive) | > 71.3 µM (inactive) | 38.1 µM | 29 µM (inactive) | > 100 µM (inactive) | > 77.3 µM (inactive) | > 51.1 µM (inactive) |  | 50.9 µM (inactive) | > 79.3 µM (inactive)
CC(Cn1c2c3ccccc3ccc2c2oc(=O)c3ccccc3c21)N(C)C (stereo unspecified) | > 100 µM (inactive) | > 100 µM (inactive) | > 100 µM (inactive) | > 100 µM (inactive) |  | > 100 µM (inactive) |  | > 100 µM (inactive) | > 100 µM (inactive) | > 100 µM (inactive) | > 100 µM | > 100 µM (inactive) | > 100 µM (inactive) | > 100 µM (inactive) | > 100 µM (inactive) |  | > 100 µM (inactive) | > 100 µM (inactive)
O=C1C(Br)=CC2(C=C1Br)CCNC1=C2C(=O)c2ccccc2C1=O | 4.13 µM (inactive) | 7.89 µM (inactive) | 16.8 µM (inactive) | > 10 µM (inactive) |  | 18.4 µM (inactive) | 6.68 µM (inactive) | 18.7 µM (inactive) | 3.57 µM (inactive) | 21.6 µM (inactive) | 7.76 µM | 3.75 µM (inactive) | 8.59 µM (inactive) | 4.21 µM (inactive) | 4.75 µM (inactive) | 3.84 µM (inactive) | 3.58 µM (inactive) | 8.22 µM (inactive)
Nc1ncnc2c1ncn2CCCC(c1ccccc1)P(=O)(O)O (stereo unspecified) | > 100 µM (inactive) |  | > 100 µM (inactive) | > 100 µM (inactive) | 63 µM (inactive) |  | > 100 µM (inactive) | > 100 µM (inactive) |  | 17 µM (inactive) | > 100 µM |  | > 100 µM (inactive) | > 100 µM (inactive) |  | > 100 µM (inactive) | > 100 µM (inactive) | > 100 µM (inactive)
COC(=O)C(c1ccc(OC)cc1)N1C(=O)[C@@H](NC(=O)c2ccccc2)[C@H]1[C@@H](C)O (stereo partly specified) | > 100 µM (inactive) | > 100 µM (inactive) | > 100 µM (inactive) | > 100 µM (inactive) |  | > 100 µM (inactive) | > 100 µM (inactive) | > 100 µM (inactive) | > 100 µM (inactive) |  | > 100 µM | > 100 µM (inactive) | > 100 µM (inactive) | > 100 µM (inactive) |  | > 100 µM (inactive) | > 100 µM (inactive) | > 100 µM (inactive)
CC1(C)CC[C@]2(C(=O)O)CCC3(C)C(=CCC4[C@@]5(C)CC[C@H](OC6OCC(O)C(O)C6OC6OC(CO)C(O)C(O)C6O)C(C)(C)C5CC[C@]43C)C2C1 (stereo partly specified) | 2.81 µM (inactive) |  | 1.79 µM (inactive) | 2.33 µM (inactive) | 2.18 µM (inactive) | 1.87 µM (inactive) | 1.89 µM (inactive) | 2.46 µM (inactive) |  | 1.66 µM (inactive) | 2.17 µM | 2.98 µM (inactive) | 1.83 µM (inactive) | 1.95 µM (inactive) | 2.35 µM (inactive) | 1.96 µM (inactive) |  | 2.24 µM (inactive)

From ChEMBL document CHEMBL1201862, “PubChem BioAssay data set” (2004)
